A short description of data set [1]: Thermodynamic solubility (shake-flask). It counts as physicochemical. As to conditions: aqueous phosphate buffer, 25 °C, pH 7.4, aqueous buffer, thermodynamic from solid, aqueous phosphate buffer pH 7.4, 24 hours. In outline: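 Shake-flask method starting from 10 mM DMSO stocks, which are dried before use. Residue equilibrated 24 h at 25° C. in aqueous phosphate buffer, pH 7.4. Dissolved fraction separated and quantified by UPLC/MS/MS, with QC samples in each run.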

Data set [2] is described as follows: Human plasma protein binding (equilibrium dialysis). The note with it: dialysis 18 hours. It counts as in vitro ADME. Summed up:
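Fraction unbound (fu %) in human plasma, from LC/MSMS of plasma and buffer sides (7-point plasma calibration) after 18 h rapid equilibrium dialysis. Single determinations, with compounds pooled up to 10 per plasma pool.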

For data set [3], the target named is recombinant human Estrogen Receptor alpha ligand binding domain (ER alpha-LBD (GST)) (Homo sapiens (Human), UniProt P03372). The experiment in a line: ERα binding assay (LanthaScreen TR-FRET competition). As to conditions: TR-FRET, displacement of Fluormone ES2. In outline:
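Competition binding to GST-tagged human ERα ligand-binding domain, read by LanthaScreen TR-FRET: Tb-anti-GST antibody labels the receptor and compounds displace a fluorescent tracer, lowering the signal. IC50 was taken from dose-response curve fitting.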

The nature of data set [4]: log D (shake flask, 1-octanol/aqueous buffer). In kind it is physicochemical. In outline: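 Distribution between 1-octanol and aqueous buffer at pH 7.4 was measured by shake flask, with compounds run in mixtures of ten. Relative concentrations in each phase were quantified by UPLC with quantitative MS. Caffeine served as a low-log D QC sample in all runs.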
The next data set has as its target hERG potassium channel (Homo sapiens (Human), UniProt Q12809). As to the kind of experiment: hERG binding assay (automated patch clamp, CHO cells). In kind it is cell-based. As to conditions: CHO cell line, Nanion Syncropatch 384PE. In outline:
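CHO cells on automated patch clamp; compounds tested in quadruplicate. Currents evoked every 15 s from −80 mV holding by a 500 ms step to 60 mV then 500 ms to −40 mV.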

Where [5] appears, read: 1-octanol/aqueous buffer, pH 7.4, pH 7.4, 1-octanol/aqueous buffer.
The mark [6] stands for this setting: pH 7.4, 1-octanol/aqueous buffer.

Structures are written as SMILES. ≈ marks a conversion by molar mass, not a printed value. A value given as a limit tells only on which side of the number the result lay.

15 compounds from US10131663B2, “Chemical compounds” (AstraZeneca AB, priority 2016, dated 2018) can be followed below.

Sequence of hERG potassium channel (Q12809 whole entry): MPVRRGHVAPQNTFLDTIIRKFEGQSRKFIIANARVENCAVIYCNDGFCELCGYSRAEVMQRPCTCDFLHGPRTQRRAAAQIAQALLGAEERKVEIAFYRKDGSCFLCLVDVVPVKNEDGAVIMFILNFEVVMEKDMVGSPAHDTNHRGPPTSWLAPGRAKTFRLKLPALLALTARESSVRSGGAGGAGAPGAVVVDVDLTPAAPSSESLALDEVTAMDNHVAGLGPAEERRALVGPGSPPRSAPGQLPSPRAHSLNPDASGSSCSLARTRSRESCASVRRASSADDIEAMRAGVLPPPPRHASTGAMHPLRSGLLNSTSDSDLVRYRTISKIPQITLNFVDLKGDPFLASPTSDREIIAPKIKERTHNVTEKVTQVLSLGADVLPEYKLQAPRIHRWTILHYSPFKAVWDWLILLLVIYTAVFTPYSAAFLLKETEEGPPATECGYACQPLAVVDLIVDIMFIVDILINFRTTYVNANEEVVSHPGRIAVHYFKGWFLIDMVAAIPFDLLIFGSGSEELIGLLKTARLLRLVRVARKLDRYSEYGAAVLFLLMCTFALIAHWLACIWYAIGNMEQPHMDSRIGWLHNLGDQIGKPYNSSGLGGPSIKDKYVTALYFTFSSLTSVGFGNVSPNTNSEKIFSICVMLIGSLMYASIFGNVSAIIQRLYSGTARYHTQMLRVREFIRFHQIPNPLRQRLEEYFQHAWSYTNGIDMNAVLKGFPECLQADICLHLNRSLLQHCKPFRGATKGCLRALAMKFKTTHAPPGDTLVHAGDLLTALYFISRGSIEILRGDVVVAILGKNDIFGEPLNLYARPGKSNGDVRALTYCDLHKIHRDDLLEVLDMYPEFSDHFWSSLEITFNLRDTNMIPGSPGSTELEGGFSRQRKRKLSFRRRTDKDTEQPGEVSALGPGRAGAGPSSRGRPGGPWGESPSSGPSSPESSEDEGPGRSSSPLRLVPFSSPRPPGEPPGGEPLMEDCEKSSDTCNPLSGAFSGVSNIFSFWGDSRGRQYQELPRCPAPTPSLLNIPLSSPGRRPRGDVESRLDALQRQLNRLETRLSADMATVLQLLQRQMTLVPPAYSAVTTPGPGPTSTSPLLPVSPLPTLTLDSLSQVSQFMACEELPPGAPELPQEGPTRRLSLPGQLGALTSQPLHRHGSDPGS
Sequence of recombinant human Estrogen Receptor alpha ligand binding domain (ER alpha-LBD (GST)) (P03372 307-554): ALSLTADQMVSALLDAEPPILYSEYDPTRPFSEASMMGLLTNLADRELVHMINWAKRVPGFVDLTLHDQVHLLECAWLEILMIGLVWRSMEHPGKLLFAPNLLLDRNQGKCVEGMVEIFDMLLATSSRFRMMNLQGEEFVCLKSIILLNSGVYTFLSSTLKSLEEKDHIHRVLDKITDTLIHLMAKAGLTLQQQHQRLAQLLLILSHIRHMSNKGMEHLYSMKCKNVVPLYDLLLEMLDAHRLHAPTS

For the compound `C[C@@H]1Cc2c(ccc3[nH]ncc23)[C@@H](c2ccc(NC3CN(CCCF)C3)cc2)N1CC(F)(F)F` [Example 27, 1-(3-Fluoropropyl)-N-(4-((6R,8R)-8-methyl-7-(2,2,2-trifluoroethyl)-6,7,8,9-tetrahydro-3H-pyrazolo[4,3-f]isoquinolin-6-yl)phenyl)azetidin-3-amine], in data set [1], the solubility at 24 h worked out at 229 µM (≈ 109 µg/mL). Besides, the “Human plasma protein binding (% free)” value in data set [2] is given as 3.8 % free. In addition, the IC50 in data set [3] came to 0.81 nM; at hERG potassium channel it was 7900 nM. Further, the logD in data set [4] (setting [5]) stood at 3.8.
In the case of `COc1cc(NC2CN(CCCF)C2)ccc1[C@@H]1c2ccc3[nH]ncc3c2C[C@@H](C)N1CC(F)F` [Example 21, N-(4-((6S,8R)-7-(2,2-difluoroethyl)-8-methyl-6,7,8,9-tetrahydro-3H-pyrazolo[4,3-f]isoquinolin-6-yl)-3-methoxyphenyl)-1-(3-fluoropropyl)azetidin-3-amine], in data set [1], the solubility at 24 h was 634 µM (≈ 309 µg/mL). Further, in data set [2], the “Human plasma protein binding (% free)” value was determined as 12 % free. Also, the IC50 in data set [3] came to 2.1 nM; at hERG potassium channel, 5300 nM. Further, in data set [4] (setting [5]), the logD was determined as 3.1.
For the compound `C[C@@H]1Cc2c(ccc3[nH]nc(F)c23)[C@@H](c2ncc(NC3CN(CCCF)C3)cc2F)N1CC(F)(F)F` [Example 33, 5-Fluoro-6-((6S,8R)-1-fluoro-8-methyl-7-(2,2,2-trifluoroethyl)-6,7,8,9-tetrahydro-3H-pyrazolo[4,3-f]isoquinolin-6-yl)-N-(1-(3-fluoropropyl)azetidin-3-yl)pyridin-3-amine], the solubility at 24 h in data set [1] was found to be 466 µM (≈ 239 µg/mL). The “Human plasma protein binding (% free)” value in data set [2] is recorded as 5.4 % free. Further, the IC50 amounted to 1.4 nM in data set [3] and 14000 nM at hERG potassium channel. In data set [4] (setting [6]), this compound displayed a logD of 3.6.
For the compound `C[C@@H]1Cc2c(ccc3[nH]ncc23)[C@@H](c2ccc(NC3CN(CCCF)C3)cn2)N1CC(F)(F)F` [Example 17, N-(1-(3-fluoropropyl)azetidin-3-yl)-6-((6S,8R)-8-methyl-7-(2,2,2-trifluoroethyl)-6,7,8,9-tetrahydro-3H-pyrazolo[4,3-f]isoquinolin-6-yl)pyridin-3-amine], in data set [1], the solubility at 24 h is 833 µM (≈ 397 µg/mL). Further, the “Human plasma protein binding (% free)” value in data set [2] came out at 23 % free. In data set [4] (setting [5]), this compound came in with a logD of 2.9.
`C[C@@H]1Cc2c(ccc3[nH]ncc23)[C@@H](c2ccc(NC3CN(CCCF)C3)cn2)N1CC(F)F` [Example 25, 6-((6S,8R)-7-(2,2-difluoroethyl)-8-methyl-6,7,8,9-tetrahydro-3H-pyrazolo[4,3-f]isoquinolin-6-yl)-N-(1-(3-fluoropropyl)azetidin-3-yl)pyridin-3-amine] had a solubility at 24 h in data set [1] of 964 µM (≈ 442 µg/mL). In addition, in data set [2], the “Human plasma protein binding (% free)” value came out at 40 % free. Besides, the IC50 stood at 4.1 nM in data set [3] and 28000 nM on hERG potassium channel. In data set [4] (setting [5]), the logD was found to be 2.5.
In data set [1], `COc1cc(NC2CN(CCCF)C2)ccc1[C@@H]1c2ccc3[nH]ncc3c2C[C@@H](C)N1CC(C)(F)F` [Example 19, N-(4-((6S,8R)-7-(2,2-difluoropropyl)-8-methyl-6,7,8,9-tetrahydro-3H-pyrazolo[4,3-f]isoquinolin-6-yl)-3-methoxyphenyl)-1-(3-fluoropropyl)azetidin-3-amine] came in with a solubility at 24 h of 152 µM (≈ 76.2 µg/mL). In data set [2], the “Human plasma protein binding (% free)” value worked out at 4.3 % free. Also, the IC50 in data set [3] amounted to 2.6 nM; on hERG potassium channel, 5400 nM. The pH-dependent lipophilicity (logD) in data set [4] (setting [6]) is 3.7.
The matching figures for `C[C@@H]1Cc2c(ccc3[nH]ncc23)[C@@H](c2ncc(NC3CN(CCCF)C3)cc2F)N1CC(F)(F)F` [Example 30, 5-fluoro-N-(1-(3-fluoropropyl)azetidin-3-yl)-6-((6S,8R)-8-methyl-7-(2,2,2-trifluoroethyl)-6,7,8,9-tetrahydro-3H-pyrazolo[4,3-f]isoquinolin-6-yl)pyridin-3-amine]: 754 µM (≈ 373 µg/mL), 16 % free, 1.8 nM, more than 33000 nM and 3.
Turning to `COc1cc(NC2CN(CCCF)C2)ccc1[C@@H]1c2ccc3[nH]ncc3c2C[C@@H](C)N1CC(F)(F)F` [Example 28, 1-(3-fluoropropyl)-N-(3-methoxy-4-((6S,8R)-8-methyl-7-(2,2,2-trifluoroethyl)-6,7,8,9-tetrahydro-3H-pyrazolo[4,3-f]isoquinolin-6-yl)phenyl)azetidin-3-amine], the solubility at 24 h in data set [1] came out at 150 µM (≈ 75.8 µg/mL). Besides, in data set [2], the “Human plasma protein binding (% free)” value amounted to 6 % free. The IC50 in data set [3] worked out at 5.7 nM; on hERG potassium channel it was 7800 nM. Moreover, the logD in data set [4] (setting [6]) was found to be 3.6.
`COCC(F)(F)CN1[C@H](c2ccc(NC3CN(CCCF)C3)cc2OC)c2ccc3[nH]ncc3c2C[C@H]1C` [Example 1, N-(4-((6S,8R)-7-(2,2-difluoro-3-methoxypropyl)-8-methyl-6,7,8,9-tetrahydro-3H-pyrazolo[4,3-f]isoquinolin-6-yl)-3-methoxyphenyl)-1-(3-fluoropropyl)azetidin-3-amine] yielded a solubility at 24 h in data set [1] of 379 µM (≈ 201 µg/mL). For the same compound, the “Human plasma protein binding (% free)” value in data set [2] amounted to 8.3 % free. In addition, the IC50 in data set [3] turned out to be 3.7 nM; on hERG potassium channel it was 10000 nM. Further, the logD in data set [4] (setting [5]) was 3.4.
Take `COc1cc(NC2CN(CCCF)C2)ccc1[C@@H]1c2ccc3[nH]ncc3c2C[C@@H](C)N1CC(C)(C)F` [Example 64, N-(4-((6S,8R)-7-(2-fluoro-2-methylpropyl)-8-methyl-6,7,8,9-tetrahydro-3H-pyrazolo[4,3-f]isoquinolin-6-yl)-3-methoxyphenyl)-1-(3-fluoropropyl)azetidin-3-amine]: in data set [1], the solubility at 24 h is 474 µM (≈ 236 µg/mL). Further, the “Human plasma protein binding (% free)” value in data set [2] came to 14 % free. Moreover, the IC50 in data set [3] was 6.1 nM; on hERG potassium channel, 13000 nM. The logD in data set [4] (setting [6]) stood at 3.2.
`COCC(F)(F)CN1[C@H](c2ccc(NC3CN(CCCF)C3)cn2)c2ccc3[nH]ncc3c2C[C@H]1C` [Example 2, 6-((6S,8R)-7-(2,2-difluoro-3-methoxypropyl)-8-methyl-6,7,8,9-tetrahydro-3H-pyrazolo[4,3-f]isoquinolin-6-yl)-N-(1-(3-fluoropropyl)azetidin-3-yl)pyridin-3-amine] came in with a solubility at 24 h in data set [1] of 217 µM (≈ 109 µg/mL). Besides, the “Human plasma protein binding (% free)” value in data set [2] came to 28 % free. The IC50 in data set [3] was 2.8 nM; at hERG potassium channel it was more than 40000 nM. In addition, the logD in data set [4] (setting [5]) was 2.6.
For the compound `C[C@@H]1Cc2c(ccc3[nH]ncc23)[C@@H](c2ccc(NC3CN(CCCF)C3)cn2)N1CC(F)(F)CO` [Example 16, 2,2-difluoro-3-((6S,8R)-6-(5-((1-(3-fluoropropyl)azetidin-3-yl)amino)pyridin-2-yl)-8-methyl-3,6,8,9-tetrahydro-7H-pyrazolo[4,3-f]isoquinolin-7-yl)propan-1-ol], the solubility at 24 h in data set [1] is 982 µM (≈ 480 µg/mL). Also, in data set [2], the “Human plasma protein binding (% free)” value is given as 64 % free. Also, the IC50 in data set [3] was 6.9 nM; on hERG potassium channel it was more than 40000 nM. The same compound came in with a logD in data set [4] (setting [6]) of 2.
The compound `C[C@@H]1Cc2c(ccc3[nH]ncc23)[C@@H](c2ncc(NC3CN(CCCF)C3)cc2F)N1CC1(F)CC1` [Example 18, 5-fluoro-6-((6S,8R)-7-((1-fluorocyclopropyl)methyl)-8-methyl-6,7,8,9-tetrahydro-3H-pyrazolo[4,3-f]isoquinolin-6-yl)-N-(1-(3-fluoropropyl)azetidin-3-yl)pyridin-3-amine] gave a solubility at 24 h in data set [1] of 910 µM (≈ 441 µg/mL). The “Human plasma protein binding (% free)” value in data set [2] is given as 34 % free. Besides, the IC50 in data set [3] is 29 nM; on hERG potassium channel, more than 38000 nM. This compound also returned a logD in data set [4] (setting [5]) of 2.6.
On to `COc1cc(NC2CN(CCCF)C2)ccc1[C@@H]1c2ccc3[nH]ncc3c2C[C@@H](C)N1CC1(F)CC1` [Example 6, N-(4-((6S,8R)-7-((1-fluorocyclopropyl)methyl)-8-methyl-6,7,8,9-tetrahydro-3H-pyrazolo[4,3-f]isoquinolin-6-yl)-3-methoxyphenyl)-1-(3-fluoropropyl)azetidin-3-amine], for which the solubility at 24 h in data set [1] is more than 947 µM. Further, the “Human plasma protein binding (% free)” value in data set [2] was determined as 34 % free. Moreover, the IC50 in data set [3] was found to be 8.8 nM; at hERG potassium channel, 9100 nM. In data set [4] (setting [6]), the logD was determined as 2.4.
As to `C[C@@H]1Cc2c(ccc3[nH]ncc23)[C@@H](c2ccc(NC3CN(CCCF)C3)cc2)N1CC(F)F` [Example 48, N-(4-((6R,8R)-7-(2,2-difluoroethyl)-8-methyl-6,7,8,9-tetrahydro-3H-pyrazolo[4,3-f]isoquinolin-6-yl)phenyl)-1-(3-fluoropropyl)azetidin-3-amine], in data set [1], the solubility at 24 h was found to be 582 µM (≈ 266 µg/mL). In data set [2], the “Human plasma protein binding (% free)” value is 10 % free. Besides, the IC50 in data set [3] is 1.5 nM. The same compound displayed a logD in data set [4] (setting [5]) of 3.1.

Broadly, the solubility is the dissolved amount per volume that the medium holds. Higher therefore signals much dissolved substance. What is called IC50 is the concentration needed to halve the response being measured. The logD is lipophilicity at a set pH, counting ionised and neutral species. Read a low logD as lower lipophilicity.
